Assays:
[1] = Measurement of two-photon absorption cross-section (z-scan technique, 405 nm); format: physicochemical; settings: for Two-photon absorption cross-section σ: light of wavelength 405 nm, Ti:sapphire pulsed laser second harmonic, pulse width 80 fs, 1 kHz; for Ratio σ/ε: two-photon absorption cross-section σ (GM) to molar absorption coefficient ε at 405 nm
Text: The two-photon absorption cross-section of the compound A irradiated with light having a wavelength of 405 nm may be greater than or equal to 1 GM, may be greater than or equal to 10 GM, may be greater than or equal to 30 GM, may be greater than or equal to 50 GM, may be greater than or equal to 70 GM, may be greater than or equal to 100 GM, may be greater than or equal to 200 GM, or may be greater than or equal to 300 GM. The upper limit of the two-photon absorption cross-section of the compound A is not particularly limited, and is, for example, 10000 GM. For example, the two-photon absorption cross-section may be measured by the z-scan technique described in J. Opt. Soc. Am. B, 2003, Vol. 20, p. 529. The z-scan technique is widely used as a method for measuring non-linear optical constants. In the z-scan technique, a measurement sample is moved along the beam irradiation direction near the focal point at which the laser beam is focused. During this process, the change in the amount of light transmitted through the measurement sample is recorded. In the z-scan technique, the power density of incident light changes depending on the location of the measurement sample. Thus, when the measurement sample absorbs light non-linearly, the amount of transmitted light is attenuated when the measurement sample is located near the focal point of the laser beam. The two-photon absorption cross-section may be calculated by fitting the changes in the amount of transmitted light based on the theoretical curve predicted from conditions, such as the intensity of the incident light, the thickness of the measurement sample, and the concentration of the compound A in the measurement sample.
The two-photon absorption cross-section of the compounds of Examples and Comparative Examples was measured with respect to light having a wavelength of 405 nm. The measurement of the two-photon absorption cross-section was performed using the z-scan technique described in J. Opt. Soc. Am. B, 2003, Vol. 20, p. 529. The light source used for the measurement of the two-photon absorption cross-section was a Ti:sapphire pulsed laser. Specifically, second harmonic waves from the Ti:sapphire pulsed laser were applied to the sample. The pulse width of the laser was 80 fs. The repetition frequency of the laser was 1 kHz. The average power of the laser was changed in the range of greater than or equal to 0.01 mW and less than or equal to 0.08 mW. […] The full width at half maximum of the light from the laser was 4 nm.

[2] = Measurement of molar absorption coefficient (JIS K0115: 2004, 405 nm); format: physicochemical; settings: absorbance at 405 nm; compound concentration 500 mmol/L
Text: The molar absorption coefficient of the compound A with respect to light having a wavelength of 405 nm may be less than or equal to 50 mol^−1·L·cm^−1, may be less than or equal to 10 mol^−1·L·cm^−1, may be less than or equal to 5 mol^−1·L·c^−1, may be less than or equal to 2 mol^−1·L·cm^−1, or may be less than or equal to 1 mol^−1·L·cm^−1. The lower limit of the molar absorption coefficient of the compound A is not particularly limited, and is, for example, 0.01 mol^−1·L·cm^−1. The molar absorption coefficient may be measured by, for example, a method in accordance with the manual specified in Japanese Industrial Standards (JIS) K0115: 2004. […] In the measurement of the molar absorption coefficient, furthermore, the concentration of the compound A is adjusted to 500 mmol/L. This concentration is very high compared to the concentration in the measurement test of the molar absorption coefficient of an optical absorption peak. The molar absorption coefficient may be used as an index of one-photon absorption.
The compounds of Examples and Comparative Examples were analyzed by a method in accordance with JIS K0115: 2004 to measure the molar absorption coefficient. Specifically, first, a measurement sample was provided in which the concentration of the compound had been controlled to 500 mmol/L. An absorption spectrum of the measurement sample was measured. From the spectrum obtained, the absorbance at a wavelength of 405 nm was read. The molar absorption coefficient was calculated based on the concentration of the compound in the measurement sample and the optical path length of the cell used for the measurement.

| Structure (SMILES) | Two-photon absorption cross-section σ [1] | Ratio σ/ε [1] | Molar absorption coefficient ε [2] [L/mol/cm] |
| --- | --- | --- | --- |
| COc1cc(Br)c(-c2cc(OC)c(OC)cc2-c2cc(OC)c(OC)cc2-c2cc(OC)c(OC)cc2Br)cc1OC [Ex. 1] | 51 GM | 38 | 1.34 |
| COc1cc(Br)c(-c2cc(OC)c(OC)cc2-c2cc(OC)c(OC)cc2-c2cc(OC)c(OC)cc2-c2cc(OC)c(OC)cc2-c2cc(OC)c(OC)cc2-c2cc(OC)c(OC)cc2-c2cc(OC)c(OC)cc2Br)cc1OC [Ex. 2] | 73 GM | 72 | 1.01 |
| COc1cc(Br)c(-c2cc(OC)c(OC)cc2-c2cc(OC)c(OC)cc2-c2cc(OC)c(OC)cc2-c2cc(OC)c(OC)cc2-c2cc(OC)c(OC)cc2-c2cc(OC)c(OC)cc2-c2cc(OC)c(OC)cc2-c2cc(OC)c(OC)cc2-c2cc(OC)c(OC)cc2-c2cc(OC)c(OC)cc2-c2cc(OC)c(OC)cc2Br)cc1OC [Ex. 3] | 71 GM | 142 | 0.50 |
| COc1cc(Br)c(-c2cc(OC)c(OC)cc2-c2cc(OC)c(OC)cc2-c2cc(OC)c(OC)cc2-c2cc(OC)c(OC)cc2-c2cc(OC)c(OC)cc2-c2cc(OC)c(OC)cc2-c2cc(OC)c(OC)cc2-c2cc(OC)c(OC)cc2-c2cc(OC)c(OC)cc2-c2cc(OC)c(OC)cc2-c2cc(OC)c(OC)cc2-c2cc(OC)c(OC)cc2-c2cc(OC)c(OC)cc2Br)cc1OC [Ex. 4] | 82 GM | 167 | 0.49 |
| COc1cc(Br)c(-c2cc(OC)c(OC)cc2-c2cc(OC)c(OC)cc2-c2cc(OC)c(OC)cc2-c2cc(OC)c(OC)cc2-c2cc(OC)c(OC)cc2-c2cc(OC)c(OC)cc2-c2cc(OC)c(OC)cc2-c2cc(OC)c(OC)cc2-c2cc(OC)c(OC)cc2-c2cc(OC)c(OC)cc2-c2cc(OC)c(OC)cc2-c2cc(OC)c(OC)cc2-c2cc(OC)c(OC)cc2-c2cc(OC)c(OC)cc2-c2cc(OC)c(OC)cc2Br)cc1OC [Ex. 5] | 336 GM | 223 | 1.51 |
| COc1cc(Br)c(-c2cc(OC)c(OC)cc2-c2cc(OC)c(OC)cc2Br)cc1OC [OP3Br] | could not be measured |  |  |
| C(#Cc1c(C#Cc2ccccc2)c(C#Cc2ccccc2)c(C#Cc2ccccc2)c(C#Cc2ccccc2)c1C#Cc1ccccc1)c1ccccc1 [compound 1, hexakis(phenylethynyl)benzene, reference compound] | 23000 GM | 10 | 2730 |
| OC(C#Cc1ccc(N(c2ccc(C#CC(O)(c3ccccc3)c3ccccc3)cc2)c2ccc(C#CC(O)(c3ccccc3)c3ccccc3)cc2)cc1)(c1ccccc1)c1ccccc1 [compound 2, reference compound] | 380 GM | 5 | 70 |

Reference: patent publication US20240069408A1, “LIGHT ABSORPTION MATERIAL, RECORDING MEDIUM, INFORMATION RECORDING METHOD, AND INFORMATION READING METHOD” (Panasonic Intellectual Property Management Co., Ltd., priority 2021, published 2024)
